Columns and labels:
[1] = target: Human HDAC8 (Homo sapiens (Human), UniProt Q9BY41); assay: Caliper endpoint assay for HDAC8 enzymatic activity; format: biochemical; details: in vitro enzymatic
[2] = target: Human HDAC6 (Homo sapiens (Human), UniProt Q9UBN7); assay: HDAC6 enzymatic activity assay (Caliper endpoint or fluorogenic format); format: biochemical; details: for IC50: in vitro enzymatic; for Selectivity (6 v 8) (fold): ratio of HDAC8 IC50/HDAC6 IC50
Chain of Human HDAC6 (Q9UBN7 whole entry): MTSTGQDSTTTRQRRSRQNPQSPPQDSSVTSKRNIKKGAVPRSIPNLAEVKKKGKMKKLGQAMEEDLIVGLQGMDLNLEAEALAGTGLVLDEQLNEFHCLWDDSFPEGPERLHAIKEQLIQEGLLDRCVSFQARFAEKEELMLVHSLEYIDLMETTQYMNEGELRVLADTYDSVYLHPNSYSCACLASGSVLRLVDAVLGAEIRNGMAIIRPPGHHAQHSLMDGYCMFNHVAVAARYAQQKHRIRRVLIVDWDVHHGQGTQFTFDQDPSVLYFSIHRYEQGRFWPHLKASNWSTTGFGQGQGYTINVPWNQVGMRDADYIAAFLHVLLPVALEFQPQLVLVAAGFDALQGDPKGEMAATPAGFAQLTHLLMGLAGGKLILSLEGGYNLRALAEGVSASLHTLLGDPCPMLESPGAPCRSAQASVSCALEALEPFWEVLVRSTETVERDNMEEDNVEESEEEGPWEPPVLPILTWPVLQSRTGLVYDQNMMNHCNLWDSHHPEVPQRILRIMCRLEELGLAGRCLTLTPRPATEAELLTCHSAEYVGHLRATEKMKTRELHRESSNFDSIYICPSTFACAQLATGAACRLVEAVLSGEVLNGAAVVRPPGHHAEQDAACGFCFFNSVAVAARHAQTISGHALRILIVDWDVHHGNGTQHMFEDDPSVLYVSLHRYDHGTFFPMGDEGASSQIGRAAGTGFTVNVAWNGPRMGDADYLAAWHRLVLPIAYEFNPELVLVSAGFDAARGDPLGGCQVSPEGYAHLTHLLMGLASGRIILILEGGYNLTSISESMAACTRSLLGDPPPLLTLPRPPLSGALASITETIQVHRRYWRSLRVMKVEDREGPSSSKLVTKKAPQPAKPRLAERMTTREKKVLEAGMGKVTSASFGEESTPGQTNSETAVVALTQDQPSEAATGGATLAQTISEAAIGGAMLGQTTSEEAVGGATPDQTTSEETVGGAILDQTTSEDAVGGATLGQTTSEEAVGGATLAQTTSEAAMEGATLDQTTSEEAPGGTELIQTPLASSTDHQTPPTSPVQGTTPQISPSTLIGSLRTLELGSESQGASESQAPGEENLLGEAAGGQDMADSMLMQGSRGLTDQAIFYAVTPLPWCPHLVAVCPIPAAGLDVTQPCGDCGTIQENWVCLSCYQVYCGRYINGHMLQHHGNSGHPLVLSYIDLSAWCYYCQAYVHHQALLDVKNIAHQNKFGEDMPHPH

Chain of Human HDAC8 (Q9BY41 whole entry): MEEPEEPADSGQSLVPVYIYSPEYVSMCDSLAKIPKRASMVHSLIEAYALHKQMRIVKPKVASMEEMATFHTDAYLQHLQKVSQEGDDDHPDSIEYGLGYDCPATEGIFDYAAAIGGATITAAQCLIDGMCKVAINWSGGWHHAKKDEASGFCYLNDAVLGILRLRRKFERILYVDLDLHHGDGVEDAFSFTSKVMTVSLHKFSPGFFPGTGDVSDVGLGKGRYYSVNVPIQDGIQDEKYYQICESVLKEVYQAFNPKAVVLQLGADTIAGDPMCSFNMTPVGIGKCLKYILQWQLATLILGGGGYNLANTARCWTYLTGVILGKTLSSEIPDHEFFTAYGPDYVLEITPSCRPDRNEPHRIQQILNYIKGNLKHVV

SMILES	IC50 [1] [µM]	IC50 [2] [µM]	Selectivity (6 v 8) (fold) [2]
Fc1ccc(OCc2ncc(-c3nnc(C(F)F)o3)cc2F)cc1 [Compound 6, 2-(difluoromethyl)-5-(5-fluoro-6-((4-fluorophenoxy)methyl)pyridin-3-yl)-1,3,4-oxadiazole]	> 100	0.001 to 0.1	V (V: >1000)
Fc1ccc(Cl)c(OCc2ccc(-c3nnc(C(F)F)o3)cn2)c1 [Compound 7, 2-(6-((2-chloro-5-fluorophenoxy)methyl)pyridin-3-yl)-5-(difluoromethyl)-1,3,4-oxadiazole]	> 100	0.001 to 0.1	V (V: >1000)
FC(F)c1nnc(-c2ccc(COc3ccc(Cl)cc3)nc2)o1 [Compound 8, 2-(6-((4-chlorophenoxy)methyl)pyridin-3-yl)-5-(difluoromethyl)-1,3,4-oxadiazole]	> 100	0.001 to 0.1	V (V: >1000)
Fc1ccc(OCc2ccc(-c3nnc(C(F)F)o3)cn2)cc1F [Compound 9, 2-(difluoromethyl)-5-(6-((3,4-difluorophenoxy)methyl)pyridin-3-yl)-1,3,4-oxadiazole]	> 100	0.001 to 0.1	V (V: >1000)
FC(F)c1nnc(-c2ccc(COc3cccc4cccnc34)nc2)o1 [Compound 10, 2-(difluoromethyl)-5-(6-((quinolin-8-yloxy)methyl)pyridin-3-yl)-1,3,4-oxadiazole]	> 100	0.001 to 0.1	V (V: >1000)
FC(F)c1nnc(-c2ccc(COc3cccc4ccccc34)nc2)o1 [Compound 11, 2-(difluoromethyl)-5-(6-((naphthalen-1-yloxy)methyl)pyridin-3-yl)-1,3,4-oxadiazole]	> 100	0.001 to 0.1	V (V: >1000)
Fc1ccc(OCc2ccc(-c3nnc(C(F)F)o3)cn2)cc1 [Compound 12, 2-(difluoromethyl)-5-(6-((4-fluorophenoxy)methyl)pyridin-3-yl)-1,3,4-oxadiazole]	> 100	0.001 to 0.1	V (V: >1000)
FC(F)c1nnc(-c2ccc(C(F)(F)Oc3cccc4cccnc34)nc2)o1 [Compound 13, 2-(6-(difluoro(quinolin-8-yloxy)methyl)pyridin-3-yl)-5-(difluoromethyl)-1,3,4-oxadiazole]	> 100	0.001 to 0.1	V (V: >1000)
Fc1ccc(OC(F)(F)c2ccc(-c3nnc(C(F)F)o3)cn2)cc1 [Compound 15, 2-(6-(difluoro(4-fluorophenoxy)methyl)pyridin-3-yl)-5-(difluoromethyl)-1,3,4-oxadiazole]	> 100	0.1 to 1	V (V: >1000)
FC(F)c1nnc(-c2ccc(COc3ccccn3)nc2)o1 [Compound 16, 2-(difluoromethyl)-5-(6-((pyridin-2-yloxy)methyl)pyridin-3-yl)-1,3,4-oxadiazole]	> 100	0.001 to 0.1	V (V: >1000)
FC(F)c1nnc(-c2ccc(COc3cccnc3)nc2)o1 [Compound 17, 2-(difluoromethyl)-5-(6-((pyridin-3-yloxy)methyl)pyridin-3-yl)-1,3,4-oxadiazole]	10 to 100	0.001 to 0.1	V (V: >1000)
FC(F)c1nnc(-c2ccc(COc3ccncc3)nc2)o1 [Compound 18, 2-(difluoromethyl)-5-(6-((pyridin-4-yloxy)methyl)pyridin-3-yl)-1,3,4-oxadiazole]	> 100	0.001 to 0.1	V (V: >1000)
Fc1cncc(OCc2ccc(-c3nnc(C(F)F)o3)cn2)c1 [Compound 19, 2-(Difluoromethyl)-5-(6-(((5-fluoropyridin-3-yl)oxy)methyl)pyridin-3-yl)-1,3,4-oxadiazole]	> 100	0.001 to 0.1	V (V: >1000)
FC(F)c1nnc(-c2ccc(COCC34CC5CC(CC(C5)O3)C4)nc2)o1 [Compound 20, 2-(6-(((2-oxaadamantan-1-yl)methoxy)methyl)pyridin-3-yl)-5-(difluoromethyl)-1,3,4-oxadiazole]	> 100	0.001 to 0.1	V (V: >1000)
N#Cc1cccc(OCc2ccc(-c3nnc(C(F)F)o3)cn2)c1 [Compound 26]	> 100	0.001 to 0.1	V (V: >1000)
N#CCc1cccc(OCc2ccc(-c3nnc(C(F)F)o3)cn2)c1 [Compound 27]	> 100	0.001 to 0.1	V (V: >1000)
FC(F)c1nnc(-c2ccc(COc3cccc4ocnc34)nc2)o1 [Compound 28]	> 100	0.001 to 0.1	V (V: >1000)
N#Cc1c(F)cccc1OCc1ccc(-c2nnc(C(F)F)o2)cn1 [Compound 29]	10 to 100	0.001 to 0.1	IV (IV: >100-1000)
N#Cc1cc(OCc2ccc(-c3nnc(C(F)F)o3)cn2)ccc1F [Compound 30]	> 100	0.001 to 0.1	V (V: >1000)
FC(F)c1nnc(-c2ccc(COc3ccc4ccncc4c3)nc2)o1 [Compound 31]	1 to 10	0.001 to 0.1	IV (IV: >100-1000)
FC(F)c1nnc(-c2ccc(COc3ccc4cnccc4c3)nc2)o1 [Compound 32]	10 to 100	0.001 to 0.1	V (V: >1000)
FC(F)c1nnc(-c2ccc(COc3cccc4cnccc34)nc2)o1 [Compound 35]	> 100	0.001 to 0.1	V (V: >1000)
FC(F)c1nnc(-c2ccc(COc3ccc4nccnc4c3)nc2)o1 [Compound 36]	> 100	0.001 to 0.1	V (V: >1000)
Cn1ncc2cc(OCc3ccc(-c4nnc(C(F)F)o4)cn3)ccc21 [Compound 37]	10 to 100	0.001 to 0.1	V (V: >1000)

SMILES	IC50 [1] [µM]	IC50 [2] [µM]	Selectivity (6 v 8) (fold) [2]
C#Cc1cccc(OCc2ccc(-c3nnc(C(F)F)o3)cn2)c1 [Compound 39]	> 100	0.001 to 0.1	V (V: >1000)
C#Cc1ccccc1OCc1ccc(-c2nnc(C(F)F)o2)cn1 [Compound 41]	> 100	0.001 to 0.1	V (V: >1000)
N#Cc1ccccc1OCc1ccc(-c2nnc(C(F)F)o2)cn1 [Compound 42]	> 100	0.001 to 0.1	V (V: >1000)
N#CCc1ccc(OCc2ccc(-c3nnc(C(F)F)o3)cn2)cc1 [Compound 43]	10 to 100	0.001 to 0.1	IV (IV: >100-1000)
N#CCc1ccccc1OCc1ccc(-c2nnc(C(F)F)o2)cn1 [Compound 44]	> 100	0.001 to 0.1	V (V: >1000)
N#Cc1cc(F)ccc1OCc1ccc(-c2nnc(C(F)F)o2)cn1 [Compound 45]	> 100	0.001 to 0.1	V (V: >1000)
N#Cc1cccc(OCc2ccc(-c3nnc(C(F)F)o3)cn2)c1F [Compound 46]	> 100	0.001 to 0.1	V (V: >1000)
N#Cc1ccc(OCc2ccc(-c3nnc(C(F)F)o3)cn2)c(F)c1 [Compound 47]	10 to 100	0.001 to 0.1	V (V: >1000)
N#Cc1cccc(F)c1OCc1ccc(-c2nnc(C(F)F)o2)cn1 [Compound 48]	> 100	0.001 to 0.1	V (V: >1000)
N#Cc1ccc(F)c(OCc2ccc(-c3nnc(C(F)F)o3)cn2)c1 [Compound 49]	10 to 100	0.001 to 0.1	IV (IV: >100-1000)
N#Cc1ccc(F)cc1OCc1ccc(-c2nnc(C(F)F)o2)cn1 [Compound 50]	> 100	0.001 to 0.1	V (V: >1000)
N#Cc1cc(F)cc(OCc2ccc(-c3nnc(C(F)F)o3)cn2)c1 [Compound 51]	> 100	0.001 to 0.1	V (V: >1000)
N#Cc1ccc(OCc2ccc(-c3nnc(C(F)F)o3)cn2)cc1F [Compound 52]	> 100	0.001 to 0.1	V (V: >1000)
FC(F)c1nnc(-c2ccc(COc3ccc4ocnc4c3)nc2)o1 [Compound 53]	> 100	0.001 to 0.1	V (V: >1000)
FC(F)c1nnc(-c2ccc(COc3ccc4c(c3)CCCC4)nc2)o1 [Compound 54]	> 100	0.001 to 0.1	V (V: >1000)
FC(F)c1nnc(-c2ccc(COc3cccc4nccnc34)nc2)o1 [Compound 55]	> 100	0.001 to 0.1	V (V: >1000)
FC(F)c1nnc(-c2ccc(COc3cccc4cncnc34)nc2)o1 [Compound 56]	> 100	0.001 to 0.1	V (V: >1000)
Cn1cnc2cc(OCc3ccc(-c4nnc(C(F)F)o4)cn3)ccc21 [Compound 57]	10 to 100	0.001 to 0.1	IV (IV: >100-1000)
Cn1ncc2c(OCc3ccc(-c4nnc(C(F)F)o4)cn3)cccc21 [Compound 58]	> 100	0.001 to 0.1	V (V: >1000)
Cc1noc2cc(OCc3ccc(-c4nnc(C(F)F)o4)cn3)ccc12 [Compound 59]	> 100	0.001 to 0.1	V (V: >1000)
Cc1noc2cccc(OCc3ccc(-c4nnc(C(F)F)o4)cn3)c12 [Compound 60]	10 to 100	0.001 to 0.1	V (V: >1000)
Cc1nc2cc(OCc3ccc(-c4nnc(C(F)F)o4)cn3)ccc2o1 [Compound 61]	10 to 100	0.001 to 0.1	IV (IV: >100-1000)
FC(F)c1nnc(-c2ccc(COc3ccc4ncccc4c3)nc2)o1 [Compound 62]	10 to 100	0.001 to 0.1	V (V: >1000)
